Active and inactive are the calls of the source. No cut-off for these calls is given here.
Tests used:
[1] = system: JAR; assay: Antiproliferative activity against human JAR cells assessed as cell growth inhibition at 10 uM incubated for 72 hrs by MTT assay relative to control; type: functional
[2] = system: A549; assay: Antiproliferative activity against human A549 cells assessed as cell growth inhibition at 10 uM incubated for 72 hrs by MTT assay relative to control; type: functional
[3] = system: MCF7; assay: Antiproliferative activity against human MCF7 cells assessed as cell growth inhibition at 10 uM incubated for 72 hrs by MTT assay relative to control; type: functional
[4] = system: JAR; assay: Antiproliferative activity against human JAR cells assessed as cell growth inhibition incubated for 72 hrs by MTT assay; type: functional, cell-based
[5] = system: K562; assay: Antiproliferative activity against human K562 cells assessed as cell growth inhibition incubated for 72 hrs by MTT assay; type: functional, cell-based; conditions: K562, 72 h
[6] = system: A549; assay: Antiproliferative activity against human A549 cells assessed as cell growth inhibition incubated for 72 hrs by MTT assay; type: functional, cell-based; conditions: A549, 72 h
[7] = system: MCF7; assay: Antiproliferative activity against human MCF7 cells assessed as cell growth inhibition incubated for 72 hrs by MTT assay; type: functional, cell-based; conditions: MCF7, 72 h
[8] = organism: Homo sapiens; assay: Binding affinity to RNase L (unknown origin) expressed in Escherichia coli BL21 (DE3) assessed as thermal stability by measuring melting temperature at 60 uM incubated for 50 mins by NanoDSF analysis
[9] = system: K562; assay: Antiproliferative activity against human K562 cells assessed as cell growth inhibition at 10 uM incubated for 72 hrs by MTT assay relative to control; type: functional
[10] = system: JAR; assay: Induction of apoptosis in human JAR cells assessed as fold increase in cleaved PARP level at 10 uM incubated for 24 hrs by Western blot analysis; type: functional
[11] = system: JAR; assay: Inhibition of cell migration in human JAR cells at 5 uM measured after 72 hrs by scratch wound healing assay relative to control; type: functional
[12] = system: JAR; assay: Inhibition of colony formation in human JAR cells measured after 3 days by Giemsa staining based microscopic analysis; type: functional, cell-based; conditions: time 3.0 day, DDE = dose-dependent effect
[13] = system: JAR; assay: Inhibition of colony formation in human JAR cells assessed as cell reproductive death at upto 5 uM measured after 3 days by Giemsa staining based microscopic analysis; type: functional; conditions: time 3.0 day

SMILES	inhibition at 10 µM [1] [%]	inhibition at 10 µM [2] [%]	inhibition at 10 µM [3] [%]	IC50 [4] [µM]	IC50 [5] [µM]	IC50 [6] [µM]	IC50 [7] [µM]	ΔTm [8] [°C]	inhibition at 10 µM [9] [%]	fold change (FC) [10]	inhibition at 5 µM [11] [%]	inhibition [12]	inhibition [13]
CCOC(=O)C1=C(Nc2ccccc2)S/C(=C\c2ccc(O)c(O)c2)C1=O	48.7	30.7	38.1	6.1	5.2	> 100	25.2						
CCOC(=O)C1=C(Nc2ccccc2)S/C(=C\c2ccc([N+](=O)[O-])c(O)c2)C1=O	51.2		41.5	12.7	12.7	19.1							
CCOC(=O)C1=C(Nc2ccccc2)S/C(=C\c2cc(OC)ccc2OC)C1=O	38.1	< 10	< 10					0.5	30.7				
CCOC(=O)C1=C(Nc2ccccc2)S/C(=C\c2cccnc2)C1=O	32.1	< 10	< 10					1	< 10				
CCOC(=O)C1=C(Nc2ccccc2Br)S/C(=C\c2ccc[nH]2)C1=O	62.7		29.4	8.9	36.3	43.2	27.1		20.5				
CCOC(=O)C1=C(Nc2ccccc2)S/C(=C\c2cccc(C(=O)O)c2)C1=O	50.6	< 10	< 10	11.7	16.2								
CN1CCN(c2cc3c(cc2[N+](=O)[O-])-c2c(cnn2-c2ccc(C(=O)O)cc2)C(C)(C)O3)CC1	53.5			9.3	16.5	> 100							
CCOC(=O)C1=C(Nc2ccccc2)S/C(=C\c2ccc(C(=O)O)cc2)C1=O	16.8	11.6	< 10						27.5				
CCOC(=O)C1=C(Nc2ccccc2)S/C(=C\c2ccccc2O)C1=O	89.4			8	8.8	16.9	15.1						
CCOC(=O)C1=C(Nc2ccccc2)S/C(=C\c2cc3cccnc3[nH]2)C1=O	54.3	16.7	18.2	14.4	> 100								
CCOC(=O)C1=C(Nc2ccccc2)S/C(=C\C2CCCCC2)C1=O	95.2		45.3	3.7	5.9	18	6.4	1.4		>1.5	42	Dde	Active
CCOC(=O)C1=C(Nc2ccc(OC)c(OC)c2)S/C(=C\c2ccc[nH]2)C1=O	47.9												
CCOC(=O)C1=C(Nc2cccc(F)c2)S/C(=C\c2ccc[nH]2)C1=O	45.4	< 10	< 10	22.6	> 100								
CCOC(=O)C1=C(Nc2ccccc2)SC(=C2CCN(C)CC2)C1=O	< 10	< 10	< 10										
CCOC(=O)C1=C(Nc2ccccc2)S/C(=C\c2ccc(OC)cc2)C1=O	32.9	17.5	14.7						9.6				
CCOC(=O)C1=C(Nc2ccccc2)S/C(=C\c2cc[nH]c2)C1=O	19.5	< 10	< 10						18.9				
CCOC(=O)C1=C(Nc2ccc(CC)cc2)S/C(=C\c2ccc[nH]2)C1=O	< 10	17.5											
CCOC(=O)C1=C(Nc2ccccc2)S/C(=C\c2cc3ncccc3[nH]2)C1=O	74.8		42.2	9.6	6.6	13.6							
CCOC(=O)C1=C(Nc2ccc(Br)cc2)S/C(=C\c2ccc[nH]2)C1=O	41.5	< 10	< 10	27					17				
CCOC(=O)C1=C(Nc2ccccc2)S/C(=C\c2ccc(O)c(OC)c2)C1=O	49.7	24.2	23.2	8.9	10.4	> 100	> 100	-1.3					
CCOC(=O)C1=C(Nc2ccccc2)SC(=C2CN(C(=O)OC(C)(C)C)C2)C1=O			29.6	23.2	10.7	35.8		0.5					
CCOC(=O)C1=C(Nc2ccccc2)S/C(=C\c2ccc(Br)c(O)c2)C1=O	39.8	13.6	16.4						22				

SMILES	inhibition at 10 µM [1] [%]	inhibition at 10 µM [2] [%]	inhibition at 10 µM [3] [%]	IC50 [4] [µM]	IC50 [5] [µM]	IC50 [6] [µM]	IC50 [7] [µM]	ΔTm [8] [°C]	inhibition at 10 µM [9] [%]	fold change (FC) [10]	inhibition at 5 µM [11] [%]	inhibition [12]	inhibition [13]
CCOC(=O)C1=C(Nc2ccccc2)S/C(=C\c2cccc(O)c2)C1=O	51.9	30.6	24.1	17	38.7			0.5					
CCOC(=O)C1=C(Nc2ccccc2)SC(=C2CCC2)C1=O	70.2		40.4	8.4	4.5	17	18.1	0.7					
CCOC(=O)C1=C(Nc2ccccc2)S/C(=C2\CCN(C(=O)OC(C)(C)C)C2)C1=O			33.8	37	11.6	47		0.5					
CCOC(=O)C1=C(Nc2ccccc2)S/C(=C\c2ccccc2C(F)(F)F)C1=O	29	< 10	< 10					0.8	19.7				
CCOC(=O)C1=C(Nc2ccc([N+](=O)[O-])cc2)S/C(=C\c2ccc[nH]2)C1=O	54.9			15.6	> 100								
CCOC(=O)C1=C(Nc2ccccc2)S/C(=C\c2ccc(OC)c(O)c2)C1=O		11						0.6					
CCOC(=O)C1=C(Nc2ccccc2)S/C(=C\c2ccc[nH]2)C1=O	49.2	23.5	18.3	9.5	71	> 100	48		16.2				
CCOC(=O)C1=C(Nc2ccccc2)S/C(=C\c2cc(OC)c(O)c(OC)c2)C1=O	57.5	19.2	12.9	17.4	31.7	19.2							
CCOC(=O)C1=C(Nc2ccccc2)SC(=C2CCCCC2)C1=O	15.5							0.7	18.7				
CCOC(=O)C1=C(Nc2ccccc2)S/C(=C\c2c[nH]c3ccccc23)C1=O	57.6	19.8	25	14.1	> 100								
CCOC(=O)C1=C(Nc2ccc(C)cc2)S/C(=C\c2ccc[nH]2)C1=O	< 10	20.9	< 10										
CCOC(=O)C1=C(Nc2cccc([N+](=O)[O-])c2)S/C(=C\c2ccc[nH]2)C1=O	57.4		27.4	10.1	7.2	23.9	20.7						
CCOC(=O)C1=C(Nc2ccc(C(F)(F)F)cc2)S/C(=C\c2ccc[nH]2)C1=O	38.5	30.1	19.1	46.8									
CCOC(=O)C1=C(Nc2ccccc2)S/C(=C\c2ccc(C(F)(F)F)cc2)C1=O	68.7		41.3	5.9	7	9.8	13.7	0.8					
CCOC(=O)C1=C(Nc2ccccc2)S/C(=C\c2ccccc2)C1=O	20.3	29.6	23.6					0.8	42.9				
CCOC(=O)C1=C(Nc2cccc(C(F)(F)F)c2)S/C(=C\c2ccc[nH]2)C1=O	52.9	22.8	22.9	19.7	> 100								
CCOC(=O)C1=C(Nc2ccc(F)cc2)S/C(=C\c2ccc[nH]2)C1=O	61.5	< 10	< 10	15.9	> 100								
CCOC(=O)C1=C(Nc2ccccc2)S/C(=C\c2cc3ccncc3[nH]2)C1=O	26.3	17.1	18.2						22.8				
CCOC(=O)C1=C(Nc2ccc(OC)cc2)S/C(=C\c2ccc[nH]2)C1=O	27.6	< 10	< 10										
CCOC(=O)C1=C(Nc2ccccc2)S/C(=C\c2cc3cnccc3[nH]2)C1=O	< 10												
CCOC(=O)C1=C(Nc2ccccc2)S/C(=C\c2ccc(C(=O)OCC)[nH]2)C1=O	60.1	< 10		10.6	46.8	> 100	30.5		18.6				

Reference: ChEMBL document CHEMBL5131493, “Synthesis and evaluation of RNase L-binding 2-aminothiophenes as anticancer agents” (Bioorg Med Chem, 2022)
